Results: patent EP4755881A1 (Wuhan Createrna Science and Technology Co., Ltd., priority 2023, dated 2025)
Where two headings read alike, the source gives them in different places. One block for each molecule: values may come before it.

Test: Pharmacokinetic study in rats (oral gavage and tail vein injection, plasma LC-MS/MS)
Format: in vivo
Details: rat; for Cmax: read-out: Cmax
Protocol: Male SPF-grade SD rats (Beijing Vital River Laboratory Animal Technology Co., Ltd.) with a body weight range of 200 to 250 g were used. After acclimatization, the rats were administered a clear solution of the compound of the present disclosure via oral gavage (Po, fasted overnight before administration with free access to water, food returned 4 hours after administration) and tail vein injection (Iv, free access to food and water throughout the administration). Blood samples were collected from the orbital venous plexus/jugular vein of rats at specified time points after administration (blood collection time points for the PO group: 0.167, 0.5, 1, 2, 4, 6, 8, and 24 h; for the IV group: 0.033, 0.167, 1, 2, 4, 6, 8, and 24 h). The concentration of compounds in plasma was detected by LC-MS/MS (AB SCIEX Qtrap4500). Data were analyzed using WinNonlin (version 5.2.1 Pharsight, Mountain View, CA) with a non-compartmental model to obtain PK parameters (including Cmax, C0, Tmax, AUClast, AUCinf, T1/2, etc.).
Table 3: Results of in vivo pharmacokinetic studies of compounds of the present disclosure in rats
The vehicle for the Po group compound was 5% DMSO + 5% ethanol + 60% PEG400 + 30% normal saline; the vehicle for the Iv group compound was 10% ethanol + 20% pure water + 70% PEG400 solution.

Structure (SMILES): Cc1nc(-c2nnn(C)c2NC(=O)OC(C)C23CC(C2)C3)ccc1C#CC1(CC(=O)O)CC1 (racemic) [compound 260]
AUC(0-t) (SD rats, Iv, 1 mg/kg): 5000 to 10000 ng·h/mL | half-life (SD rats, Iv, 1 mg/kg): 8.44 h | Cmax (SD rats, Iv, 1 mg/kg): 800 to 5000 ng/mL | AUC(0-t) (SD rats, Po, 1 mg/kg): 5000 to 10000 ng·h/mL | half-life (SD rats, Po, 1 mg/kg): 9.12 h | Cmax (SD rats, Po, 1 mg/kg): 200 to 800 ng/mL

Structure (SMILES): CCC[C@H](C)OC(=O)Nc1c(-c2ccc(C#CC3(CC(=O)O)CC3)c(C)n2)nnn1C [010-B]
AUC(0-t) (in vivo, SD rats, Iv, 1 mg/kg): 5000 to 10000 ng·h/mL | Cmax (in vivo, SD rats, Iv, 1 mg/kg): 800 to 5000 ng/mL | AUC(0-t) (in vivo, SD rats, Po, 3 mg/kg): 10000 to 20000 ng·h/mL | Cmax (in vivo, SD rats, Po, 3 mg/kg): 800 to 5000 ng/mL | half-life (in vivo, iv, 1 mg/kg, SD rats): 8.56 h | half-life (in vivo, po, 3 mg/kg, SD rats): 6.85 h

Structure (SMILES): Cc1nc(-c2nnn(C)c2NC(=O)OC(C)C23CC(F)(C2)C3)ccc1C#CC1(CC(=O)O)CC1 (stereo not drawn) [compound 285]
AUC(0-t) (male, SD rats, Iv, 1 mg/kg): 5000 to 10000 ng·h/mL | half-life (male, SD rats, Iv, 1 mg/kg): 9.86 h | Cmax (male, SD rats, Iv, 1 mg/kg): 800 to 5000 ng/mL | AUC(0-t) (male, SD rats, Po, 1 mg/kg): 3000 to 5000 ng·h/mL | half-life (male, SD rats, Po, 1 mg/kg): 6.12 h | Cmax (male, SD rats, Po, 1 mg/kg): 200 to 800 ng/mL

Structure (SMILES): CCC[C@@H](C)OC(=O)Nc1c(-c2ccc(C#C[C@@H]3C[C@H]3C(=O)O)c(C)n2)nnn1C (mixture of isomers) [compound 224, trans-2-((2-methyl-6-(1-methyl-5-(((((R)-pentan-2-yl)oxy)carbonyl)amino)-1H-1,2,3-triazol-4-yl)pyridin-3-yl)ethynyl)cyclopropane-1-carboxylic acid]
half-life (male, SD, iv, 1 mg/kg): 4.78 h | half-life (male, SD, po, 1 mg/kg): 3.76 h | AUC(0-t) (male, SD rats, Iv, 1 mg/kg): 5000 to 10000 ng·h/mL | Cmax (male, SD rats, Iv, 1 mg/kg): 800 to 5000 ng/mL | AUC(0-t) (male, SD rats, Po, 1 mg/kg): 5000 to 10000 ng·h/mL | Cmax (male, SD rats, Po, 1 mg/kg): 800 to 5000 ng/mL

Structure (SMILES): Cc1nc(-c2nnn(C)c2NC(=O)O[C@H](C)CC(C)(F)F)ccc1C#C[C@@H]1CC[C@H]1C(=O)O (mixture of isomers) [compound 213, trans-2-((6-(5-(((((R)-4,4-difluoropentan-2-yl)oxy)carbonyl)amino)-1-methyl-1H-1,2,3-triazol-4-yl)-2-methylpyridin-3-yl)ethynyl)cyclobutane-1-carboxylic acid]
half-life (male, SD, iv, 1 mg/kg): 10.4 h | half-life (male, SD, po, 1 mg/kg): 9.97 h | AUC(0-t) (male, SD rats, Iv, 1 mg/kg): 5000 to 10000 ng·h/mL | Cmax (male, SD rats, Iv, 1 mg/kg): 800 to 5000 ng/mL | AUC(0-t) (male, SD rats, Po, 1 mg/kg): 5000 to 10000 ng·h/mL | Cmax (male, SD rats, Po, 1 mg/kg): 200 to 800 ng/mL

Structure (SMILES): Cc1nc(-c2nnn(C)c2COC(=O)N(C)CC2CCC2)ccc1C#CC1CC1C(=O)O (racemic) [compound 361]
AUC(0-t) (SD rats, Iv, 1 mg/kg): 1200 to 3000 ng·h/mL | half-life (SD rats, Iv, 1 mg/kg): 3.03 h | Cmax (SD rats, Iv, 1 mg/kg): 800 to 5000 ng/mL | AUC(0-t) (SD rats, Po, 1 mg/kg): 1200 to 3000 ng·h/mL | half-life (SD rats, Po, 1 mg/kg): 2.53 h | Cmax (SD rats, Po, 1 mg/kg): 200 to 800 ng/mL

Structure (SMILES): Cc1nc(-c2nnn(C)c2NC(=O)OC(C)CC(C)(F)F)ccc1C#CC1(CC(=O)O)CC1 (racemic) [compound 311]
AUC(0-t) (SD rats, Iv, 1 mg/kg): 5000 to 10000 ng·h/mL | half-life (SD rats, Iv, 1 mg/kg): 9.33 h | Cmax (SD rats, Iv, 1 mg/kg): 800 to 5000 ng/mL | AUC(0-t) (SD rats, Po, 1 mg/kg): 3000 to 5000 ng·h/mL | half-life (SD rats, Po, 1 mg/kg): 8.49 h | Cmax (SD rats, Po, 1 mg/kg): 200 to 800 ng/mL

The next lines start with the values.

AUC(0-t) (in vivo, SD rats, Iv, 1 mg/kg): 1200 to 3000 ng·h/mL | Cmax (in vivo, SD rats, Iv, 1 mg/kg): 800 to 5000 ng/mL | AUC(0-t) (in vivo, SD rats, Po, 1 mg/kg): 1200 to 3000 ng·h/mL | Cmax (in vivo, SD rats, Po, 1 mg/kg): 200 to 800 ng/mL | half-life (in vivo, iv, 1 mg/kg, SD rats): 7.63 h | half-life (in vivo, po, 1 mg/kg, SD rats): 6.24 h
Structure (SMILES): Cc1nc(-c2nnn(C)c2COC(=O)N(C)CCC(C)(F)F)ccc1C#CC1CCC1C(=O)O (racemic) [compound 359]

AUC(0-t) (in vivo, SD rats, Iv, 1 mg/kg): 3000 to 5000 ng·h/mL | Cmax (in vivo, SD rats, Iv, 1 mg/kg): 800 to 5000 ng/mL | AUC(0-t) (in vivo, SD rats, Po, 1 mg/kg): 3000 to 5000 ng·h/mL | Cmax (in vivo, SD rats, Po, 1 mg/kg): 200 to 800 ng/mL | half-life (in vivo, iv, 1 mg/kg, SD rats): 7.66 h | half-life (in vivo, po, 1 mg/kg, SD rats): 7.2 h
Structure (SMILES): Cc1nc(-c2nnn(C)c2NC(=O)O[C@H](C)CC(C)(C)F)ccc1C#C[C@@H]1CC[C@H]1C(=O)O [compound 306]

AUC(0-t) (in vivo, SD rats, Iv, 1 mg/kg): 3000 to 5000 ng·h/mL | Cmax (in vivo, SD rats, Iv, 1 mg/kg): 800 to 5000 ng/mL | AUC(0-t) (in vivo, SD rats, Po, 1 mg/kg): 5000 to 10000 ng·h/mL | Cmax (in vivo, SD rats, Po, 1 mg/kg): 200 to 800 ng/mL | half-life (in vivo, iv, 1 mg/kg, SD rats): 8.42 h | half-life (in vivo, po, 1 mg/kg, SD rats): 6.41 h
Structure (SMILES): Cc1nc(-c2nnn(C)c2NC(=O)O[C@H](C)CCC(C)(F)F)ccc1C#CC1(CC(=O)O)CC1 [compound 314]

AUC(0-t) (in vivo, SD rats, Iv, 1 mg/kg): 5000 to 10000 ng·h/mL | Cmax (in vivo, SD rats, Iv, 1 mg/kg): 800 to 5000 ng/mL | AUC(0-t) (in vivo, SD rats, Po, 1 mg/kg): 3000 to 5000 ng·h/mL | Cmax (in vivo, SD rats, Po, 1 mg/kg): 800 to 5000 ng/mL | half-life (in vivo, iv, 1 mg/kg, SD rats): 4.68 h | half-life (in vivo, po, 1 mg/kg, SD rats): 5.15 h
Structure (SMILES): Cc1nc(-c2nnn(C)c2NC(=O)OC(C)CC(C)(F)F)ccc1C#CC1CC1C(=O)O (stereo not drawn) [compound 291]
